Legend:
Format in all cases: cell-based, Staphylococcus aureus
[1] = test system: S. aureus SA113Δica (ATCC 35556Δica::tet); test: Biofilm formation by ica deletion mutant on polycarbonate surface; details: 6 hrs
Protocol: (§1) To quantify the amount of biofilm formed on polycarbonate surface, a 13-mm-diameter polycarbonate disc (Thermanox, Nalgene Nunc International, Rochester, N.Y., USA) was placed in a well of a 24-well microtiter plate, followed by the addition of 1 mL aliquot of the diluted bacterial culture. After incubation at 37° C. for a designated period of time, viable cells were washed off the surface of the polycarbonate disc with PBS and counted as described above, while the PBS-washed polycarbonate disc was subjected to crystal violet staining for biofilm quantification as described above.

S. aureus SA113 [2] = test: CFU counting of cells adhered to polystyrene surface
From the text: (§2) To count the number of viable cells, the removed suspended cells were suspended in PBS by pipetting, and the resultant cell suspension was sonicated and serially diluted and subsequently plated on TSBg agar plate for colony forming unit (CFU) counting according to a method described earlier (S. Schlag et al. (2007), J. Bacteriol., 189:7911-7919).
In addition to biofilm formation, the number of cells attached to polystyrene surface and polycarbonate surface were also counted. Subsequent to the incubation of S. aureus SA113 cells with β-PGG (0 μM, 6.25 μM or 12.5 μM) for 20, 40 and 60 min, cells adhered to the polystyrene surface or polycarbonate surface were washed and suspended in PBS, followed by plating on TSBg agar for CFU counting. After incubation on polystyrene surface for 20, 40 and 60 min, the number of cells counted for the DMSO-treated control (i.e., 0 μM β-PGG) was 4.1×10^5, 6.4×10^5 and 7.8×10^5 CFU, respectively (FIG. 4, panel A, black bars).

S. aureus SA113 [3] = test: CFU counting of cells adhered to polycarbonate surface
From the text: as §2, §1
In addition to biofilm formation, the number of cells attached to polystyrene surface and polycarbonate surface were also counted.

S. aureus SA113 [4] = test: Fluorescence microscopy of adhered cells after Syto 9 staining; details: 6.25 μM and 12.5 μM, 60 min
Protocol: Meanwhile, cells adhering to the polystyrene or polycarbonate surfaces were washed off with PBS at 60 min after seeding and stained with Syto 9 (Invitrogen), a green florescence dye that stains nucleic acids, followed by observation under a fluorescence microscope.
The cells adhering to the polystyrene surface and polycarbonate surface after treatment with 0 μM, 6.25 μM and 12.5 μM β-PGG for 60 min were also examined under a fluorescent microscope after Syto 9 staining.

[5] = test system: icaA gene transcription in S. aureus SA113; test: icaA expression by real-time RT-PCR; details: concentrations below 50 μM, 5 hr treatment, normalized to gyrB
Protocol: Bacterial cells were treated with 0.5 mg/mL lysostaphin (Sigma-Aldrich) at 37° C. for 15 min, and total bacterial mRNA was isolated and purified using a TRIzol reagent (Invitrogen) according to the manufacturer's instructions, followed by quantification of icaA expression by real-time RT-PCR (LightCycler, Roche, Mannheim, Germany). The icaA mRNA was reverse-transcribed and amplified using primers A1 (5′-[…]-3′) (SEQ ID NO:1) and B1 (5′-[…]-3′) (SEQ ID NO:2) that were designed based on the sequence of the icaA gene (Gene ID:3921484). […] Amplified PCR products were detected using a Light Cycler-RNA Amplification Kit Cyber Green 1 (Roche, Mannheim, Germany), starting with a cycle of denaturation at 95° C. for 5 min, then running for 45 cycles as follows: at 95° C. for 30 sec, 62° C. for 30 sec and 72° C. for 20 sec. To monitor the specificity of RT-PCR reaction, the PCR products were analyzed by melting curve analysis.
To determine whether the β-PGG inhibition effected at the transcriptional level, total mRNAs were isolated from S. aureus SA113 cells after 5 hr treatment with β-PGG at various concentration (0, 3.13, 12.5 and 50 μM), and transcription of the icaA gene was analyzed by LightCycler quantitative RT-PCR.

S. aureus SA113 [6] = test: Biofilm formation on β-PGG/polyaniline-coated polystyrene wells (safranin staining); details: polyaniline carrier, 24 hrs
Protocol: β-PGG (stock conc.: 8.89 μg/mL in DMSO) in various amounts was evenly mixed with a fixed amount of polyaniline (40 μL, 3 mg/mL in DMSO) so as to provide a 100 μL β-PGG/polyaniline mixture with a final β-PGG concentration of 0.47 μM, 0.94 μM, 1.89 μM, 3.78 μM, 4.73 μM or 5.67 μM. The resultant β-PGG/polyaniline mixture was coated on the inner surfaces of the wells of 96-well polystyrene microtiter plates in an amount of 100 μL per well. After β-PGG coating, the plates were dried in a vacuum chamber, followed by UV sterilization for 30 min. An overnight culture of S. aureus SA113 was 200-fold diluted with TSBg, and a 200 μL aliquot of the diluted culture was seeded into each well of the β-PGG-coated microtiter plates. After culturing at 37° C. for 24 hrs, the wells were washed twice with PBS, and then examined by safranin staining according to a method described earlier (Christine Heilmann et al. (1996), Infect. Immun., 64 (1):277-282), so as to quantify the amount of biofilm formed on the β-PGG-coated polystyrene surface.

S aureus SA113 = test: Bacterial attachment onto glass coverslips (data not shown)

O=C(OC[C@H]1O[C@@H](OC(=O)c2cc(O)c(O)c(O)c2)[C@H](OC(=O)c2cc(O)c(O)c(O)c2)[C@@H](OC(=O)c2cc(O)c(O)c(O)c2)[C@@H]1OC(=O)c1cc(O)c(O)c(O)c1)c1cc(O)c(O)c(O)c1 [β-PGG, 1,2,3,4,6-penta-O-galloyl-β-D-glucopyranose]
decrease of the amount of biofilm, polycarbonate surface ([1]; 3.13 μM): 67% | decrease of the amount of biofilm, polycarbonate surface ([1]; 12.5 μM): 96% | number of cells attached to polystyrene surface (S. aureus SA113 [2]; 6.25 μM, 20 min, DMSO control 4.1×10^5): 2.1×10^5 CFU | number of cells attached to polystyrene surface (S. aureus SA113 [2]; 6.25 μM, 40 min, DMSO control 6.4×10^5): 2.05×10^5 CFU | number of cells attached to polystyrene surface (S. aureus SA113 [2]; 6.25 μM, 60 min, DMSO control 7.8×10^5): 1.8×10^5 CFU | number of cells attached to polystyrene surface (S. aureus SA113 [2]; 12.5 μM, 20 min, DMSO control 4.1×10^5): 3.7×10^4 CFU | number of cells attached to polystyrene surface (S. aureus SA113 [2]; 12.5 μM, 40 min, DMSO control 6.4×10^5): 2.3×10^4 CFU | number of cells attached to polystyrene surface (S. aureus SA113 [2]; 12.5 μM, 60 min, DMSO control 7.8×10^5): 1.7×10^4 CFU | number of cells attached to polycarbonate surface (S. aureus SA113 [3]; 6.25 μM, 20 min, DMSO control 7×10^5): 2.9×10^5 CFU | number of cells attached to polycarbonate surface (S. aureus SA113 [3]; 6.25 μM, 40 min, DMSO control 1.1×10^6): 2.3×10^5 CFU | number of cells attached to polycarbonate surface (S. aureus SA113 [3]; 6.25 μM, 60 min, DMSO control 2×10^6): 3.5×10^5 CFU | number of cells attached to polycarbonate surface (S. aureus SA113 [3]; 12.5 μM, 20 min, DMSO control 7×10^5): 1.0×10^5 CFU | number of cells attached to polycarbonate surface (S. aureus SA113 [3]; 12.5 μM, 40 min, DMSO control 1.1×10^6): 8×10^4 CFU | number of cells attached to polycarbonate surface (S. aureus SA113 [3]; 12.5 μM, 60 min, DMSO control 2×10^6): 5×10^4 CFU | cells attached to polystyrene and polycarbonate surfaces (Syto 9) (S. aureus SA113 [4]): significantly reduced the number of cells attached | transcription of icaA [5]: did not influence the transcription of icaA | biofilm formation on coated polystyrene wells (S. aureus SA113 [6]; coated with β-PGG at 1.9 μM or lower): slightly affected | decrease of the amount of biofilm on coated polystyrene wells (S. aureus SA113 [6]; coated with β-PGG at a concentration higher than 3.8 μM): more than 90% | bacterial attachment onto glass coverslips (S aureus SA113): inhibited bacterial attachment onto glass coverslips
